Like-named read-outs stand apart in the source and are kept apart here.
Legend:
jack bean urease (JBU) [1] = target: T1, jack bean urease (JBU) (Canavalia ensiformis, UniProt P07374); test: Determination of urease inhibition type (Lineweaver-Burk plots); assay type: biochemical
T1 construct: purchased Sigma Aldrich (Steineheim, Germany) type III (catalogue number not given)
Description: (§1) Using the methods described above, the type of enzyme inhibition induced by coptisine was determined by examining changes in the Michaelis constant (KM) and maximum velocity (vmax) values from Lineweaver–Burk plots of 1/v versus 1/urea. The inhibition constant was determined using secondary plots of the apparent KM/vmax or 1/vmax versus the concentration of coptisine. The assays were performed in triplicate.

H. pylori urease (HPU) = target: T2, H. pylori urease (HPU) (Helicobacter pylori, UniProt P69996); test: as above; assay type: biochemical
T2 construct: Crude HPU was obtained according to the method described by Matsubara et al; endogenous in cells; host or cells: cultured Helicobacter pylori (strain not specified)
Description: as §1

jack bean urease (JBU) [2] = target: T1, jack bean urease (JBU); test: Urease inhibition assay in vitro (modified Berthelot method); assay type: biochemical
Description: This assay was performed using the modified Berthelot method (phenol-hypochlorite) in 96 well plates. At the beginning of each reaction, different concentrations of urease solution and 150 mM urea as a substrate were mixed in 20 mM HEPES buffer (pH 7.5) at 37 °C. After a 20-min reaction, urease activity was tested by measuring the concentration of ammonia produced by the reaction at 595 nm using the microplate reader (Thermo Fisher Multiskan FC, Instruments, Inc., USA) at ambient temperature. […] One unit (U) of urease activity was defined as the amount of urease required to catalyse 1 μmol urea per min. These experiments were repeated in triplicate.
Coptisine’s ability to inhibit urease activity was determined by measuring amounts of ammonia produced using the modified Berthelot method described above. The assay mixture, which contained 200 μL of enzyme and 200 μL of coptisine solution (0.16–2.51 mM) in 200 μL of 20 mM HEPES buffer (pH 7.5), was incubated for 20 min at 37 °C in 96-well plates. The reaction was then initiated by adding urea solution (150 mM) to determine residual urease activity. AHA was used as a standard urease inhibitor. […] Residual activity (RA %) for each assay was calculated using the following equation: RA % = (activity with inhibitors/activity without inhibitors) × 100%. […]

H. pylori strains = test: Minimal inhibitory concentration assay (agar dilution); assay type: cell-based, Helicobacter pylori
Excerpt: Fourteen H. pylori strains were used in this study. NCTC 11637 and NCTC 26695 strains were purchased from American Type Culture Collection. Sydney Strain-1 (SS1) was kindly provided by Prof. Richard Ferrero of Monash University, Australia. Clinical isolate ICDC 111001 was provided by Prof. Zhang Jian-zhong of the Chinese Center for Disease Control and Prevention, China. Ten clinical isolates (Hp1868, Hp1869, Hp1870, Hp1871, Hp1872, Hp1873, Hp1874, Hp1875, Hp1876, and Hp1877) were obtained from Renji Hospital, Shanghai Jiaotong University.
All strains were cultured in Columbia agar base containing 7% sheep blood at 37 °C in a micro-aerophilic environment (5% O2, 10% CO2, and 85% N2). After 3 days, H. pylori was scraped and suspended in phosphate buffered saline (PBS). Turbidimetry was employed to adjust the concentrations of different H. pylori strains (turbidity equivalent to 1.0 McFarland standard). Crude HPU was obtained according to the method described by Matsubara et al.[42]
In this study, different concentrations (12.5, 25, 50, and 100 μg/mL) of berberine, palmatine, epiberberine, jatrorrhizine, and coptisine were used to evaluate antimicrobial activity against the standard H. pylori strain NCTC 11637. The agar dilution method was then used to analyse the antibacterial effects of coptisine against two H. pylori standard strains (SS1 and NCTC 26695) and eleven clinical isolates (ICDC 111001, HP 1868, HP 1869, HP 1870, HP 1871, HP 1872, HP 1873, HP 1874, HP 1875, HP 1876, and HP 1877). In this assay, 100 μL of H. pylori suspension (McFarland = 1.0) was added to the test compound-containing or DMSO-containing (control) Columbia blood agar plate. CLR and MET were used as positive controls in this experiment. Minimum inhibitory concentration (MIC) was defined as the lowest concentration at which no strain growth was observed by visual examination after 3 days. This experiment was repeated twice.

UreG dimers = target: T3, UreG dimers (Helicobacter pylori, UniProt Q09066); test: Nickel uptake assay (dialysis, atomic absorption spectroscopy); assay type: biochemical; conditions: 25, 50 and 100 μM coptisine, 2.5 μM UreG dimer, versus control, all p < 0.01
T3 construct: HisSUMO (N, cleaved yes); made in house; host or cells: Escherichia coli
Description: UreG dimers were obtained using GTPγS as described previously. Briefly, the UreG dimer was purified by incubating apo-UreG at 3 mg/mL on ice with 1 mM GTP, 2 mM MgSO4, and 0.5 mM NiSO4 for 15 min. Nickel-charged UreG dimers were then separated from excess GTP and nickel using a Sephadex G25 desalting column. UreG dimers (2.5 μM) were injected into dialysis bag (6–8 kDa) and mixed with different concentrations of coptisine (25, 50, or 100 μM) or DMSO (control). The dialysis bag was sealed and placed in beakers containing UreG dimer buffer at 37 °C in a water bath. After 30 min, dialysis bags were placed in fresh buffer and the sample was incubated for 2 h at 4 °C with continuous shaking to initiate dialysis. The dialysis process was repeated three times. Samples were then removed and nickel concentrations were measured using atomic absorption spectroscopy (AA-7000, SHIMADZU). Nickel concentration was determined by comparing measurements against a standard curve of known nickel concentrations.

[3] = Lineweaver-Burk plots, 1.00, 2.00 or 4.00 mM Cop

T1 sequence (P07374 whole entry, looked up): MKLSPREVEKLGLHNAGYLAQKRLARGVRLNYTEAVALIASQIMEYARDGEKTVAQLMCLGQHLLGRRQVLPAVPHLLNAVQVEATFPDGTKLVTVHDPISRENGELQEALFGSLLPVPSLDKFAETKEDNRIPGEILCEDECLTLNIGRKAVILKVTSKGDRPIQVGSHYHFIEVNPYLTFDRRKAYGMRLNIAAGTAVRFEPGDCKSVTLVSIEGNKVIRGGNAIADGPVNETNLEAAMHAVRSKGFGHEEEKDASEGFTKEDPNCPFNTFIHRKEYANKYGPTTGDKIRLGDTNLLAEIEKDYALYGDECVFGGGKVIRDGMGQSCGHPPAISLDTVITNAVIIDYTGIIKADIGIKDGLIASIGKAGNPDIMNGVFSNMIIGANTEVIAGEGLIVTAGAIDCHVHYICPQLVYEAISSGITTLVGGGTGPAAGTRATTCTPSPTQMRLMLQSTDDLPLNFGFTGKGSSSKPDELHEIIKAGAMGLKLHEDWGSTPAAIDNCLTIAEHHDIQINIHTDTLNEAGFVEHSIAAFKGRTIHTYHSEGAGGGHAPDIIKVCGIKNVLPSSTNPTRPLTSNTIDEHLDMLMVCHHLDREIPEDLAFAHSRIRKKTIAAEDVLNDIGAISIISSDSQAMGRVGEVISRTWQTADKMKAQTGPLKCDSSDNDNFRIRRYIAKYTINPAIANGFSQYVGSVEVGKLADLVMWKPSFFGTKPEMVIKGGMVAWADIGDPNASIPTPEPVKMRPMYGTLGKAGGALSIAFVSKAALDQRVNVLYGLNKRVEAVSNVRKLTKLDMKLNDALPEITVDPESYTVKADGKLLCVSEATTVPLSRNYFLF
T2 sequence (P69996 whole entry): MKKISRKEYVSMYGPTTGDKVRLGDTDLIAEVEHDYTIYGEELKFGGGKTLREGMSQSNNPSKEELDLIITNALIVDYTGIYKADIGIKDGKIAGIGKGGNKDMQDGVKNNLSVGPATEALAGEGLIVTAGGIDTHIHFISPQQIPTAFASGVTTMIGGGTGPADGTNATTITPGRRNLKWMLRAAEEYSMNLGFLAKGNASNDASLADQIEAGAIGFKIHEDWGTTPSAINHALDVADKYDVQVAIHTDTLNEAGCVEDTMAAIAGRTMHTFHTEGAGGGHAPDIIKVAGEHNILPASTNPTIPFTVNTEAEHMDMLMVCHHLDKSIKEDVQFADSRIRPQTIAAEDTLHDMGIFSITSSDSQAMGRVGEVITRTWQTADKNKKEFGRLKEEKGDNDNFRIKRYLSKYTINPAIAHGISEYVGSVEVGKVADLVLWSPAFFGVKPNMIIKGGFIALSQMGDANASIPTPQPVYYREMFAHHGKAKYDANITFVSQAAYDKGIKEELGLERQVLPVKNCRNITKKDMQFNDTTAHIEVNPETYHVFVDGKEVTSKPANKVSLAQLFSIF
T2 sequence (P14916 whole entry, further chain): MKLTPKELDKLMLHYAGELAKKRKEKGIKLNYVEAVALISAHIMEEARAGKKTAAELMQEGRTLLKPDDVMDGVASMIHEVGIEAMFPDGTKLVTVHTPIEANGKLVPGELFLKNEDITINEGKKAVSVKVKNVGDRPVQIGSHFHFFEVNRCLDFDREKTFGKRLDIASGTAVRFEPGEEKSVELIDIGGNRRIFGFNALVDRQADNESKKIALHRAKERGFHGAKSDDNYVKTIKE
T3 sequence (Q09066 whole entry): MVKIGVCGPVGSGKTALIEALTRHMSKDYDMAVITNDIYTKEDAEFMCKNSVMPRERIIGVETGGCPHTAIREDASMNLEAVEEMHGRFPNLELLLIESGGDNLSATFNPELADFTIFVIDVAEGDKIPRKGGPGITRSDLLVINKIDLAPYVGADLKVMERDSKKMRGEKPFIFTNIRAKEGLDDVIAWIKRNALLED

**Q.** How did the Ki (jack bean urease (JBU) [1]) turn out when `c1c2c(cc3c1OCO3)-c1cc3ccc4c(c3c[n+]1CC2)OCO4` [Coptisine] was run?
**A.** 170 µM

**Q.** And the “inhibition type, JBU” value (jack bean urease (JBU) [1]; [3])?
**A.** non-competitively inhibits

**Q.** What about the “Kis, JBU” value (jack bean urease (JBU) [1]; from intercept versus Cop concentration) of the same molecule?
**A.** 0.25 mM

**Q.** What about the Ki (H. pylori urease (HPU)) of the same molecule?
**A.** 50 µM

**Q.** What about the “inhibition type, HPU” value (H. pylori urease (HPU); [3]) of the same molecule?
**A.** mixed-type inhibitor

**Q.** And the “Kis (binding to the enzyme substrate complex), HPU” value (H. pylori urease (HPU); from vertical intercept versus inhibitor concentration)?
**A.** 1.48 mM

**Q.** And the IC50 (jack bean urease (JBU) [2])?
**A.** 260 ± 20 µM

**Q.** What about the MIC (H. pylori strains; Helicobacter pylori, NCTC11637, pH 7.2, standard strain NCTC 11637, pH 7.2) of the same molecule?
**A.** 25 mg/L

**Q.** What about the MIC (H. pylori strains; Helicobacter pylori, NCTC26695, strain NCTC 26695, pH = 7.2) of the same molecule?
**A.** 25 mg/L

**Q.** What about the MIC (H. pylori strains; Helicobacter pylori, clinical isolate HP 1868, pH = 7.2) of the same molecule?
**A.** 50 mg/L

**Q.** And the MIC (H. pylori strains; Helicobacter pylori, clinical isolate HP 1869 (MET resistance), pH = 7.2)?
**A.** 50 mg/L

**Q.** What about the MIC (H. pylori strains; Helicobacter pylori, clinical isolate HP 1870 (CLR and MET resistance), pH = 7.2) of the same molecule?
**A.** 25 mg/L

**Q.** And the MIC (H. pylori strains; Helicobacter pylori, clinical isolate HP 1871 (MET resistance), pH = 7.2)?
**A.** 25 mg/L

**Q.** And the MIC (H. pylori strains; Helicobacter pylori, clinical isolate HP 1872, pH = 7.2)?
**A.** 25 mg/L

**Q.** And the MIC (H. pylori strains; Helicobacter pylori, clinical isolate HP 1873, pH = 7.2)?
**A.** 50 mg/L

**Q.** What about the MIC (H. pylori strains; Helicobacter pylori, clinical isolate HP 1874, pH = 7.2) of the same molecule?
**A.** 50 mg/L

**Q.** What about the MIC (H. pylori strains; Helicobacter pylori, clinical isolate HP 1875, pH = 7.2) of the same molecule?
**A.** 50 mg/L

**Q.** And the MIC (H. pylori strains; Helicobacter pylori, clinical isolate HP 1876 (CLR and MET resistance), pH = 7.2)?
**A.** 50 mg/L

**Q.** What about the MIC (H. pylori strains; Helicobacter pylori, clinical isolate HP 1877, pH = 7.2) of the same molecule?
**A.** 50 mg/L

**Q.** And the MIC (H. pylori strains; Helicobacter pylori, clinical isolate ICDC 111001, pH = 7.2)?
**A.** 25 mg/L

**Q.** And the MIC (H. pylori strains; Helicobacter pylori, read-out: MICs against eleven clinical isolates, eleven clinical isolates from three sites in China)?
**A.** 25 to 50 mg/L

**Q.** And the MIC (H. pylori strains; Helicobacter pylori, strain SS1, pH = 7.2)?
**A.** 25 mg/L

**Q.** What about the MIC (H. pylori strains; clinical isolate HP 1869 (MET resistance), pH = 7.2) of the same molecule?
**A.** 50 mg/L

**Q.** What about the MIC (H. pylori strains; clinical isolate HP 1870 (CLR and MET resistance), pH = 7.2) of the same molecule?
**A.** 25 mg/L

**Q.** And the MIC (H. pylori strains; clinical isolate HP 1871 (MET resistance), pH = 7.2)?
**A.** 25 mg/L

**Q.** What about the MIC (H. pylori strains; clinical isolate HP 1876 (CLR and MET resistance), pH = 7.2) of the same molecule?
**A.** 50 mg/L

**Q.** What about the MIC (H. pylori strains; standard strain NCTC 11637, pH 7.2) of the same molecule?
**A.** 25 mg/L

**Q.** And the MIC (H. pylori strains; strain NCTC 26695, pH = 7.2)?
**A.** 25 mg/L

**Q.** What about the MIC (H. pylori strains; strain SS1, pH = 7.2) of the same molecule?
**A.** 25 mg/L

**Q.** And the “bound nickel concentrations of UreG dimers” value (UreG dimers)?
**A.** markedly decreased
